# Laboratory results taken from US20150315241A1, “Antibiotic Peptides” (priority 2007, published 2015).
# Like-named read-outs stand apart in the source and are kept apart here. Where a SMILES comes first, the peptide text is derived from it. [ ]: non-standard residue; d: D form. The star is where a group is joined. Orn(α-tetramethylguanidino) = CN(C)C(=N[C@@H](CCCN)C(=O)*)N(C)C; Hyp = O=C(O)[C@@H]1C[C@@H](O)CN1; Cit = NC(=O)NCCC[C@H](N)C(=O)O; Tle = CC(C)(C)[C@H](N)C(=O)O; Ac6c = NC1(C(=O)O)CCCCC1; Orn = NCCC[C@H](N)C(=O)O; βAla = NCCC(=O)O
# Legend:
# E. coli BL 21 AI = assay: Growth inhibition assay (MIC); assay type: cell-based, Escherichia coli; conditions: 1% TSB, 37° C., 20 hrs
# Experimental: (§1) The minimal inhibition concentrations (MIC) of the apidaecin-derived peptides and peptide-derivatives were determined by a growth inhibition assay using a serial peptide dilution in sterilized round-bottom 96-well plates (polystyrene, U-bottom, Greiner Bio-One GmbH) with a final volume of 100 μL per well. The bacteria, e.g., E. coli BL21 A1, were grown in nutrient broth (NB, Carl Roth GmbH+Co. KG, Karlsruhe, Germany) at 37° C. over night. To each well of the 96-well plate, 50 μL of the overnight culture adjusted to 5×10^6 CFU/mL in 1% TSB were added. Lyophilized peptides and peptidomimetics were dissolved in 1% TSB (tryptic soy broth) or water to give a final concentration of 250 μg/mL. Fifty μL of the peptide or peptidomimetics solution were added to the first well of a row on the plate and mixed. Fifty μL of the first well containing the peptide solution were transferred to the second well, mixed and again 50 μL transferred to the next well and so on. Thereby, a two-fold dilution series was obtained starting at 250 μg/mL in the first well down to 120 ng/mL in the 12th well of a row giving a final peptide or peptidomimetics concentration from 125 μg/mL (well 1) to 60 ng/mL (well 12). Plates were incubated at 37° C. for 20 hrs. The absorbance was measured at 595 nm using a TECAN micro plate spectrophotometer (Tecan, Germany). All peptides and peptidomimetics were measured in triplicates. Sterilized water was used as a negative control.
# (§2) The bacteria strains were tested: • Eschericha coli 1103, 10233, BL 21 AI, DC 2, • Klebsiella pneumoniae 681, • Micrococcus luteus ATCC 10240, • Mycobacterium vaccae • Bactillus subtillis 347.
# M. luteus ATCC 10240 = assay type: cell-based, Micrococcus luteus
# Experimental: as §1, §2
Compound,MIC E. coli BL 21 AI (E. coli BL 21 AI) [µg/mL],"MIC M. luteus ATCC 10240 (M. luteus ATCC 10240; ATCC 10240, 20 h) [µg/mL]","MIC M. luteus ATCC 10240 (M. luteus ATCC 10240; 1% TSB, 37° C., 20 hrs) [µg/mL]"
CC[C@H](C)[C@H](NC(=O)[C@H](Cc1ccc(O)cc1)NC(=O)[C@@H](NC(=O)[C@@H]1CCCN1C(=O)[C@H](CCCNC(=N)N)NC(=O)[C@H](CC(N)=O)NC(=O)[C@H](CC(N)=O)NC(=O)[C@H](CCCN)NC(C)=O)C(C)C)C(=O)N1CCC[C@H]1C(=O)N[C@@H](CCC(N)=O)C(=O)N1CCC[C@H]1C(=O)N[C@@H](CCCNC(=N)N)C(=O)N1CCC[C@H]1C(=O)N1CCC[C@H]1C(=O)N[C@@H](Cc1c[nH]cn1)C(=O)N1CCC[C@H]1C(=O)N[C@@H](CCCNC(=N)N)C(=O)N[C@H](C(N)=O)C(C)(C)C [compound 73] (Ac-[Orn]NNRPVYIPQPRPPHPR[Tle]-NH2),62.5,7.81,
CC[C@H](C)[C@H](NC(=O)[C@H](Cc1ccc(O)cc1)NC(=O)[C@@H](NC(=O)[C@@H]1CCCN1C(=O)[C@H](CCCNC(=N)N)NC(=O)[C@H](CC(N)=O)NC(=O)[C@H](CC(N)=O)NC(=O)CN)C(C)C)C(=O)N1CCC[C@H]1C(=O)N[C@@H](CCC(N)=O)C(=O)N1CCC[C@H]1C(=O)N[C@@H](CCCNC(=N)N)C(=O)N1CCC[C@H]1C(=O)N1CCC[C@H]1C(=O)N[C@@H](Cc1c[nH]cn1)C(=O)N1CCC[C@H]1C(=O)N[C@@H](CCCNC(=N)N)C(=O)NC1(C(N)=O)CCCCC1 [compound 80] (H-GNNRPVYIPQPRPPHPR[Ac6c]-NH2),>125,15.63,
CC[C@H](C)[C@H](NC(=O)[C@H](Cc1ccc(O)cc1)NC(=O)[C@@H](NC(=O)[C@@H]1CCCN1C(=O)[C@H](CCCNC(=N)N)NC(=O)[C@H](CC(N)=O)NC(=O)[C@H](CC(N)=O)NC(=O)[C@@H](N)CCCN)C(C)C)C(=O)N1CCC[C@H]1C(=O)N[C@@H](CCCNC(=N)N)C(=O)N1CCC[C@H]1C(=O)N[C@@H](CCCNC(=N)N)C(=O)N1CCC[C@H]1C(=O)N1CCC[C@H]1C(=O)N[C@@H](Cc1c[nH]cn1)C(=O)N1CCC[C@H]1C(=O)N[C@@H](CCCNC(N)=O)C(=O)N[C@@H](CC(C)C)C(N)=O [compound 138] (H-[Orn]NNRPVYIPRPRPPHP[Cit]L-NH2),64,64,
CC[C@H](C)[C@H](NC(=O)[C@H](Cc1ccc(O)cc1)NC(=O)[C@@H](NC(=O)[C@@H]1CCCN1C(=O)[C@H](CCCNC(=N)N)NC(=O)[C@H](CC(N)=O)NC(=O)[C@H](CC(N)=O)NC(=O)CNC(C)=O)C(C)C)C(=O)N1CCC[C@H]1C(=O)N[C@@H](CCC(N)=O)C(=O)N1CCC[C@H]1C(=O)N[C@@H](CCCNC(=N)N)C(=O)N1CCC[C@H]1C(=O)N1CCC[C@H]1C(=O)N[C@@H](Cc1c[nH]cn1)C(=O)N1CCC[C@H]1C(=O)N[C@@H](CCCNC(N)=O)C(=O)N[C@@H](CC(C)C)C(N)=O [compound 148] (Ac-GNNRPVYIPQPRPPHP[Cit]L-NH2),>125,>125,
CC[C@H](C)[C@H](NC(=O)[C@H](Cc1ccc(O)cc1)NC(=O)[C@@H](NC(=O)[C@@H]1CCCN1C(=O)[C@H](CCCNC(=N)N)NC(=O)[C@H](CC(N)=O)NC(=O)[C@H](CC(N)=O)NC(=O)[C@@H](N)CCCN)C(C)C)C(=O)N1CCC[C@H]1C(=O)N[C@@H](CCCN)C(=O)N1C[C@H](O)C[C@H]1C(=O)N[C@@H](CCCNC(=N)N)C(=O)N1CCC[C@H]1C(=O)N1CCC[C@H]1C(=O)N[C@@H](Cc1c[nH]cn1)C(=O)N1CCC[C@H]1C(=O)N[C@@H](CCCNC(=N)N)C(=O)N[C@@H](CC(C)C)C(N)=O [compound 102] (H-[Orn]NNRPVYIP[Orn][Hyp]RPPHPRL-NH2),1.95,,1.95
CC[C@H](C)[C@H](NC(=O)[C@H](CCCNC(=N)N)NC(=O)[C@@H]1CCCN1C(=O)[C@H](Cc1c[nH]cn1)NC(=O)[C@@H]1CCCN1C(=O)[C@@H]1CCCN1C(=O)[C@H](CCCNC(=N)N)NC(=O)[C@@H]1C[C@@H](O)CN1C(=O)[C@H](CCCNC(N)=O)NC(=O)[C@@H]1CCCN1C(=O)[C@@H](NC(=O)[C@H](Cc1ccc(O)cc1)NC(=O)[C@@H](NC(=O)[C@@H]1CCCN1C(=O)[C@H](CCCNC(=N)N)NC(=O)[C@H](CC(N)=O)NC(=O)[C@H](CC(N)=O)NC(=O)CN)C(C)C)[C@@H](C)CC)C(N)=O [compound 91] (H-GNNRPVYIP[Cit][Hyp]RPPHPRI-NH2),1.95,,7.81
H-GNNRPVYIPQPRPPHPR-OH [compound 144],>125,>125,
CC[C@H](C)[C@H](NC(=O)[C@H](Cc1ccc(O)cc1)NC(=O)[C@@H](NC(=O)[C@@H]1CCCN1C(=O)[C@H](CCCNC(=N)N)NC(=O)[C@H](CC(N)=O)NC(=O)[C@H](CC(N)=O)NC(=O)CN)C(C)C)C(=O)N1CCC[C@H]1C(=O)N[C@@H](CCC(N)=O)C(=O)N1CCC[C@H]1C(=O)N[C@@H](CCCNC(=N)N)C(=O)N1CCC[C@H]1C(=O)N1CCC[C@H]1C(=O)N[C@@H](Cc1c[nH]cn1)C(=O)N1CCC[C@H]1C(=O)N[C@@H](CCCNC(=N)N)C(=O)N[C@H](C(N)=O)C(C)(C)C [compound 78] (H-GNNRPVYIPQPRPPHPR[Tle]-NH2),,31.25,
CC[C@H](C)[C@H](NC(=O)[C@H](CCCNC(=N)N)NC(=O)[C@@H]1CCCN1C(=O)[C@H](Cc1c[nH]cn1)NC(=O)[C@@H]1CCCN1C(=O)[C@@H]1CCCN1C(=O)[C@H](CCCNC(=N)N)NC(=O)[C@@H]1CCCN1C(=O)[C@H](CCC(N)=O)NC(=O)[C@@H]1CCCN1C(=O)[C@@H](NC(=O)[C@H](Cc1ccc(O)cc1)NC(=O)[C@@H](NC(=O)[C@@H]1CCCN1C(=O)[C@H](CCCNC(=N)N)NC(=O)[C@H](CC(N)=O)NC(=O)[C@H](CC(N)=O)NC(=O)[C@@H](N)CCCN)C(C)C)[C@@H](C)CC)C(N)=O [compound 62] (H-[Orn]NNRPVYIPQPRPPHPRI-NH2),1.95,7.81,
CC[C@H](C)[C@H](NC(=O)[C@H](Cc1ccc(O)cc1)NC(=O)[C@@H](NC(=O)[C@@H]1CCCN1C(=O)[C@H](CCCNC(=N)N)NC(=O)[C@H](CC(N)=O)NC(=O)[C@H](CC(N)=O)NC(=O)[C@H](CCCN)NC(C)=O)C(C)C)C(=O)N1CCC[C@H]1C(=O)N[C@@H](CCCN)C(=O)N1C[C@H](O)C[C@H]1C(=O)N[C@@H](CCCNC(=N)N)C(=O)N1CCC[C@H]1C(=O)N1CCC[C@H]1C(=O)N[C@@H](Cc1c[nH]cn1)C(=O)N1CCC[C@H]1C(=O)N[C@@H](CCCNC(=N)N)C(=O)N[C@@H](CC(C)C)C(N)=O [compound 103] (Ac-[Orn]NNRPVYIP[Orn][Hyp]RPPHPRL-NH2),1.95,,3.91
CC[C@H](C)[C@H](NC(=O)[C@H](Cc1ccc(O)cc1)NC(=O)[C@@H](NC(=O)[C@@H]1CCCN1C(=O)[C@H](CCCNC(=N)N)NC(=O)[C@H](CC(N)=O)NC(=O)[C@H](CC(N)=O)NC(=O)CN)C(C)C)C(=O)N1CCC[C@H]1C(=O)N[C@@H](CCC(N)=O)C(=O)N1CCC[C@H]1C(=O)N[C@@H](CCCNC(=N)N)C(=O)N1CCC[C@H]1C(=O)N1CCC[C@H]1C(=O)N[C@@H](Cc1c[nH]cn1)C(=O)N1CCC[C@H]1C(=O)N[C@@H](CCCNC(=N)N)C(=O)NCCC(N)=O [compound 79] (H-GNNRPVYIPQPRPPHPR[βAla]-NH2),>125,62.5,
CC[C@H](C)[C@H](NC(=O)[C@H](Cc1ccc(O)cc1)NC(=O)[C@@H](NC(=O)[C@@H]1CCCN1C(=O)[C@H](CCCNC(=N)N)NC(=O)[C@H](CC(N)=O)NC(=O)[C@H](CC(N)=O)NC(=O)[C@H](CCCN)N=C(N(C)C)N(C)C)C(C)C)C(=O)N1CCC[C@H]1C(=O)N[C@@H](CCCNC(=N)N)C(=O)N1CCC[C@H]1C(=O)N[C@@H](CCCNC(=N)N)C(=O)N1CCC[C@H]1C(=O)N1CCC[C@H]1C(=O)N[C@@H](Cc1c[nH]cn1)C(=O)N1CCC[C@H]1C(=O)N[C@@H](CCCNC(N)=O)C(=O)N[C@@H](CC(C)C)C(N)=O [compound 151] ({Orn(α-tetramethylguanidino)}-NNRPVYIPRPRPPHP[Cit]L-NH2; N-terminus and C-terminus assumed),,64,
CC[C@H](C)[C@H](NC(=O)[C@H](CCCNC(=N)N)NC(=O)[C@@H]1CCCN1C(=O)[C@H](Cc1c[nH]cn1)NC(=O)[C@@H]1CCCN1C(=O)[C@@H]1CCCN1C(=O)[C@H](CCCNC(=N)N)NC(=O)[C@@H]1C[C@@H](O)CN1C(=O)[C@H](CCCNC(=N)N)NC(=O)[C@@H]1CCCN1C(=O)[C@@H](NC(=O)[C@H](Cc1ccc(O)cc1)NC(=O)[C@@H](NC(=O)[C@@H]1CCCN1C(=O)[C@H](CCCNC(=N)N)NC(=O)[C@H](CC(N)=O)NC(=O)[C@H](CC(N)=O)NC(=O)CN)C(C)C)[C@@H](C)CC)C(N)=O [compound 90] (H-GNNRPVYIPR[Hyp]RPPHPRI-NH2),,7.81,
